Series [1] deals with HCV replicon system (Huh-luc/neo-ET cell carrying I389luc-ubi-NS3-3'/ET). The series can be described thus: Inhibition of the HCV replication by determining the firefly luciferase activity (HCV replicon system). It counts as cell-based, Hepatitis C virus. Conditions: for inhibition at 10 µM: compound concentration 10 μM; for IC50: concentration for 50% inhibition of the HCV replication, Huh-luc/neo-ET replicon cells, read-out: IC50; for EW (CC50/IC50): ratio of CC50/IC50. The text has this:
HCV replicon system was used to test the effects of compounds on the treatment and prevention of hepatitis C. The HCV replicon system has been acknowledged as a screening tool for new drugs (Lohmann, V. et al., 1999, Replication of subgenomic hepatitis C virus RNAs in hepatoma cell line, Science. Vol. 285, 110-113; Bartenschlager, R. 2002, Hepatitis C virus replicons: potential role for drug development, Nature Reviews/Drug Discovery. Vol. 1, 911-916; Vorlijk, J. M. et al., 2003, A replicon-based bioassay for the measurement of interferons in patients with chronic hepatitis C, Journal of Virological Methods. 110:201-209). The HCV replicon system includes a Huh-luc/neo-ET cell carrying I389luc-ubi-NS3-3′/ET gene construct which monitors the replicative capability of the HCV. In the HCV replicon system, a firefly luciferase-ubiquitin-neomycin fusion protein is expressed by the translation of the internal ribosomal entry site (IRES) of the HCV, and the hepatitis C viral nonstructural proteins (NS3-5B), which includes protease, helicase and polymerase, are expressed by the translation of the IRES of the encephalomyocarditis virus (EMCV).
The IRES of the hepatitis C virus or the hepatitis C viral nonstructural proteins consist of a replication complex. When the replication complex is affected by the candidate compound, the activity of the HCV replicon system is inhibited and the activity of the luciferase is reduced. Accordingly, the inhibition of the HCV can be estimated by determining the activity of the intensity of the luciferase expressed by the Huh-luc/noe-ET cell.
Inhibition of the HCV Replication by Determining the Firefly Luciferase Activity
(§1) Huh-luc/neo-ET cells with a concentration of 2.5×10^4 cells/100 μl/well were seeded into a 96 well culture plate (Corning Incorporation COSTAR, 3599) and placed into a cell incubator for culturing.
The oleanolic acid derivatives as listed in Table 2 were co-cultured with Huh-luc/neo-ET cells for 2 days. The mediums were washed twice by 100 μl of 1×PBS (1 mM KH2PO4, 10 mM Na2HPO4, 137 mM NaCl, 2.7 mM KCl) and PBS was removed. 35 μl of 1× passive lysis buffer (Promega, E1941) was added to the cells and vortexed for 10 minutes to thoroughly lysis the cells.
30 μl/well of the cell suspension was then added to a 96 well white plate (NUNC, 236108) for the measurement of the luciferase activity. Subsequently, 40 μl/well of luminescence analysis buffer and 20 μl/well of luminescence substrate (1 mM D-Luciferin) were added into the 96 well white plates. The luciferase activity (Rlu/s) was measured by a microplate luminescence meter (Berthold, MPL4) immediately.
The luciferase activity of the control was set as a standard to calculate the inhibition rates (%) of HCV of the experiment groups. The inhibition rates was calculated by the following formula: […]
After the test compounds were serial diluted and the inhibition rates of the HCV replication were determined at different concentrations, the concentration at 50% inhibition of the HCV replication (IC50) was calculated by grafit5 software (Erithacus Software).
For each experiment, 0.5 ng/ml and 0.1 ng/ml of the PEG IFN alpha-2a were used as positive controls for the IC50 test. Meanwhile, 1 μg/ml of cyclosporine A (CsA) was also used as a positive control for the IC50 test.

Series [2] relates to Huh-luc/neo-ET cells. In words: Cell cytotoxic test (MTT) on Huh-luc/neo-ET cells. It counts as cell-based. Particulars: concentration for 15% cell kill, two-day culture. The protocol:
(§2) Cell Cytotoxic Test on Huh-luc/noe-ET Cells
as §1
(§3) The next day, the oleanolic acid derivatives as listed in the following Tables 1 and 2 were diluted with a DMEM culture medium to the concentrations of 28.73 μg/ml, 9.57 μg/ml, 3.19 μg/ml, 1.06 μg/ml, 0.35 μg/ml, 0.11 μg/ml, 0.039 μg/ml and 0.013 μg/ml, respectively, or diluted to the concentrations of 114.92 μg/ml, 38.33 μg/ml, 12.77 μg/ml, 4.25 μg/ml, 1.42 μg/ml, 0.46 μg/ml, 0.16 μg/ml and 0.057 μg/ml, respectively. The initial medium in the 96 well culture plate was sucked out by a vacuum pump (DOAT-704AA) without removing the cells. Then, the culture medium containing the oleanolic acid derivatives were added into the 96 well culture plate containing 100 μl/well of the cells as the experiment groups, while the untreated culture mediums were added to the cells as a control.
(§4) After a two-day culture, the medium was removed and each well containing cells was washed by 100 μl of 1×PBS (1 mM KH2PO4, 10 mM Na2HPO4, 137 mM NaCl, 2.7 mM KCl) twice. Precipitates were recorded and PBS was removed. 50 μl of the medium containing 0.5 mg/ml of MTT (Sigma, M2128) was added into each well of the 96 well culture plate. The 96 well culture plate was placed in a CO2 culture incubator for 1 hour. Subsequently, 150 μl of DMSO (Riedel-de Haül, 60153) was added to each well of the 96 well culture plate and vortexed (KS shaker Type 670) to thoroughly mix the resulting purple precipitates. The 96 well culture plate was then placed in a continuous wave length microwell plate analysis system (Molecular Devices, SPECTRAMAX 190) to measure the absorbance of cells at a wavelength of 560 nm.
(§5) The average absorbance of the control was set as 100% of the cell survival rates (%) to calculate the cell survival rates (%) of the experiment groups with different concentrations of the oleanolic acid derivatives.
(§6) The cell survival rate was calculated by the following formula: Absorbance of the experiment group/Absorbance of the control×100%
(§7) The data of the cell survival rates for all experiment groups were plotted on an x-y graph to see the distribution. A trend line was obtained. […]

The nature of series [3]: Cell cytotoxic test (MTT) on Huh-luc/neo-ET cells. Conditions: human, concentration for 50% cell kill, two-day culture. It counts as cell-based. The method, then: as §2, §1, §3, §4, §5, §6, §7
[4] abbreviates: Hepatitis C virus, Huh-luc/neo-ET, 48 h, 2 days co-culture, luciferase activity, read-out: Inhibition rate (%).

Broadly, the inhibition is the change of the read-out against control, counted positive when it falls. As usually defined, the IC50 is the midpoint of a concentration-inhibition curve. As a reminder, the CC50 is the concentration giving 50% cytotoxicity. The low end stands for greater toxicity to the cells, the high end for lower toxicity to the cells. With `C=CC(C)(O)CC/C=C(\C)C(=O)OC1C(OCC2OC(OC(=O)C34CCC(C)(C)CC3C3=CCC5C6(C)CCC(OC7OC(COC8OCC(O)C(O)C8OC8OCC(O)C(O)C8O)C(O)C(O)C7O)C(C)(C)C6CCC5(C)C3(C)CC4O)C(OC3OC(C)C(OC4OCC(O)C(OC5OCC(O)C(O)C5O)C4O)C(O)C3O)C(OC(=O)/C(C)=C/CCC(C)(O)C=C)C2O)OC(C)C(O)C1O` (centres unmarked) [A21], the inhibition at 10 µM in series [1] (setting [4]) was 97.3 ± 1.1%. Moreover, the IC50 in series [1] (Hepatitis C virus) is 0.63 ± 0.07 µM. Moreover, the “EW (CC50/IC50)” value in series [1] is 90.03. For the same compound, the CC15 in series [2] amounted to 11.64 µM. The same compound came in with a CC50 at 2 days in series [3] of 56.7 µM.
Take `C/C=C(/C)C(=O)OC1C(O)C(C)(C)CC2C3=CCC4C5(C)CCC(OC6OC(C(=O)O)C(O)C(OC7OCC(O)C(O)C7O)C6OC6OC(CO)C(O)C(O)C6O)C(C)(C)C5CCC4(C)C3(C)C(OC(C)=O)C(O)C21CO` (centres unmarked) [A11]: the inhibition at 5 µM in series [1] (Hepatitis C virus, Huh-luc/neo-ET, 48 h, compound concentration 5 μM, 2 days co-culture, luciferase activity, read-out: Inhibition rate (%)) was 28.3 ± 9.1%. The same compound registered a CC15 in series [2] of 6.1 µM. Also, in series [3], it took 29.8 µM to reach half-maximal cytotoxicity (CC50 at 2 days).
For `CC1(C)CC[C@]2(C(=O)O)CCC3=C([C@@H](CCl)C[C@@H]4[C@@]5(C)C[C@H](O)[C@H](O)[C@@](C)(C(=O)O)[C@@H]5CC[C@@]34C)[C@@H]2C1` [A01], the inhibition at 10 µM in series [1] (setting [4]) came out at 41.5 ± 26.7%. Also, in series [2], the CC15 is greater than 100 µM. The same compound had a CC50 at 2 days in series [3] greater than 100 µM.
Consider `C=CC(C)(O)CC/C=C(\C)C(=O)OC1C(O)C(CO)OC(OC(=O)C23CCC(C)(C)CC2C2=CCC4C5(C)CCC(OC6OC(COC7OCC(OC(C)=O)C(O)C7OC7OC(COC(C)=O)C(O)C(O)C7O)C(O)C(O)C6OC6OCC(O)C(O)C6O)C(C)(C)C5CCC4(C)C2(C)C(O)C3O)C1OC1OCC(OC2OCC(O)C(OC3OCC(O)C(O)C3O)C2O)C(O)C1O` (centres unmarked) [A20], for which the inhibition at 10 µM in series [1] (setting [4]) was found to be 96 ± 1.5%. Moreover, the IC50 in series [1] (Hepatitis C virus) came to 0.087 ± 0.01 µM. In addition, the “EW (CC50/IC50)” value in series [1] is reported as 576.67. The compound also showed a CC15 in series [2] of 18.85 µM. In series [3], the midpoint of cytotoxicity, the CC50 at 2 days, lay at 50.2 µM.
Consider `CC1(C)CC[C@]2(C(=O)O)CC[C@]3(C)C(=CCC4[C@@]5(C)C[C@@H](O)[C@H](OC(=O)/C=C/c6ccc(O)cc6)C(C)(C)C5CC[C@]43C)C2C1` (some centres unmarked) [A09], for which the inhibition at 10 µM in series [1] (setting [4]) came out at 13.6 ± 0.5%. The compound further came in with a CC15 in series [2] of 3.1 µM. Further, in series [3], it took 26.1 µM to reach half-maximal cytotoxicity (CC50 at 2 days).
Turning to `CC1(C)CC2C3=CCC4[C@@]5(C)CC[C@H](OC6OCC(O)C(OC7OC(CO)C(O)C(O)C7O)C6O)C(C)(C)C5CC[C@@]4(C)[C@]3(C)C[C@H](O)[C@@]2(CO)[C@H](OC(=O)c2ccccc2)C1` (some centres unmarked) [A22], the inhibition at 10 µM in series [1] (setting [4]) was -0.8 ± 5.7%. This compound gave a CC15 in series [2] of 8.62 µM. For the same compound, half-maximal cytotoxicity in series [3] (CC50 at 2 days) was put at 40 µM.
For `C=CC(C)(O)CC/C=C(\C)C(=O)O[C@H]1[C@H](O)[C@@H](CO)OC(OC(=O)[C@]23CCC(C)(C)CC2C2=CCC4[C@@]5(C)CC[C@H](OC6O[C@H](COC7OC[C@H](O)[C@H](O)[C@H]7OC7OC[C@@H](O)[C@H](O)[C@H]7O)[C@@H](O)[C@H](O)[C@H]6O)C(C)(C)C5CC[C@@]4(C)[C@]2(C)CC3)[C@@H]1OC1OC(C)C(OC2OC[C@@H](O)[C@H](OC3OC[C@@H](O)[C@H](O)[C@H]3O)[C@H]2O)C(O)C1O` (some centres unmarked) [A25], the inhibition at 10 µM in series [1] (setting [4]) turned out to be 96.5 ± 0.8%. Further, in series [1] (Hepatitis C virus), the IC50 was determined as 0.36 ± 0.016 µM. Also, the “EW (CC50/IC50)” value in series [1] is 178.08. Moreover, the CC15 in series [2] was 10.29 µM. This compound displayed a half-maximal cytotoxic concentration (CC50) at 2 days in series [3] of 64.1 µM.
The matching figures for `C=CC(C)(O)CC/C=C(\C)C(=O)OCC1OC(OC(=O)C23CCC4(C)C(=CCC5C6(C)CCC(OC7OC(COC8OC(CO)C(O)C(O)C8O)C(OC8OCC(O)C(O)C8OC8OCC(O)C(O)C8O)C(O)C7NC(C)=O)C(C)(C)C6CCC54C)C2CC(C)(C)C(O)C3O)C(OC2OCC(OC3OCC(O)(CO)C3O)C(O)C2O)C(O)C1OC1OC(CO)C(O)C(O)C1O` (centres unmarked) [A16]: 95.3 ± 0.3%, 0.42 ± 0.21 µM, 107.9, 12.09 µM and 45.3 µM.

The values above are taken from patent publication US9289443B2, “Pharmaceutical composition and method for preventing or treating hepatitis C” (INDUSTRIAL TECHNOLOGY RESEARCH INSTITUTE, priority 2010, dated 2016).
